Results taken from PMC4917279 (Journal of Medicinal Chemistry, 2016).

Columns and labels:
Assay in all cases: KINOMEscan
Assay type in all cases: binding
Settings in all cases: read-out: %Ctrl @ 1000 nM
KIT(D816V) = molecular target: T1, KIT(D816V) (Homo sapiens, UniProt P10721, D816V)
T1 construct: purchased DiscoveRx KINOMEscan

NEK9 = molecular target: T2, NEK9 (Homo sapiens, UniProt Q8TD19)
T2 construct: purchased DiscoveRx KINOMEscan

SRMS = molecular target: T3, SRMS (Homo sapiens, UniProt Q9H3Y6)
T3 construct: purchased DiscoveRx KINOMEscan

CLK3 = molecular target: T4, CLK3 (Homo sapiens, UniProt P49761)
T4 construct: purchased DiscoveRx KINOMEscan

PIK3CA(H1047L) = molecular target: T5, PIK3CA(H1047L) (Homo sapiens, UniProt P42336, H1047L)
T5 construct: purchased DiscoveRx KINOMEscan

NEK11 = molecular target: T6, NEK11 (Homo sapiens, UniProt Q8NG66)
T6 construct: purchased DiscoveRx KINOMEscan

PHKG2 = molecular target: T7, PHKG2 (Homo sapiens, UniProt P15735)
T7 construct: purchased DiscoveRx KINOMEscan

MYLK2 = molecular target: T8, MYLK2 (Homo sapiens, UniProt Q9H1R3)
T8 construct: purchased DiscoveRx KINOMEscan

CAMK2B = molecular target: T9, CAMK2B (Homo sapiens, UniProt Q13554)
T9 construct: purchased DiscoveRx KINOMEscan

MAP4K3 = molecular target: T10, MAP4K3 (Homo sapiens, UniProt Q8IVH8)
T10 construct: purchased DiscoveRx KINOMEscan

MLCK = molecular target: T11, MLCK (Homo sapiens, UniProt Q32MK0)
T11 construct: purchased DiscoveRx KINOMEscan

PKMYT1 = molecular target: T12, PKMYT1 (Homo sapiens, UniProt Q99640)
T12 construct: purchased DiscoveRx KINOMEscan

YANK1 = molecular target: T13, YANK1 (Homo sapiens, UniProt Q8WU08)
T13 construct: purchased DiscoveRx KINOMEscan

TTK = molecular target: T14, TTK (Homo sapiens, UniProt P33981)
T14 construct: purchased DiscoveRx KINOMEscan

EGFR(G719S) = molecular target: T15, EGFR(G719S) (Homo sapiens, UniProt P00533, G719S)
T15 construct: purchased DiscoveRx KINOMEscan

NIM1 = molecular target: T16, NIM1 (Homo sapiens, UniProt Q8IY84)
T16 construct: purchased DiscoveRx KINOMEscan

PIP5K2B = molecular target: T17, PIP5K2B (Homo sapiens, UniProt P78356)
T17 construct: purchased DiscoveRx KINOMEscan

AKT2 = molecular target: T18, AKT2 (Homo sapiens, UniProt P31751)
T18 construct: purchased DiscoveRx KINOMEscan

CAMK1 = molecular target: T19, CAMK1 (Homo sapiens, UniProt Q14012)
T19 construct: purchased DiscoveRx KINOMEscan

IRAK4 = molecular target: T20, IRAK4 (Homo sapiens, UniProt Q9NWZ3)
T20 construct: purchased DiscoveRx KINOMEscan

KIT(V559D) = molecular target: T21, KIT(V559D) (Homo sapiens, UniProt P10721, V559D)
T21 construct: purchased DiscoveRx KINOMEscan

BIKE = molecular target: T22, BIKE (Homo sapiens, UniProt Q9NSY1)
T22 construct: purchased DiscoveRx KINOMEscan

MET(M1250T) = molecular target: T23, MET(M1250T) (Homo sapiens, UniProt P08581, M1250T)
T23 construct: purchased DiscoveRx KINOMEscan

DYRK1A = molecular target: T24, DYRK1A (Homo sapiens, UniProt Q13627)
T24 construct: purchased DiscoveRx KINOMEscan

TRKA = molecular target: T25, TRKA (Homo sapiens, UniProt P04629)
T25 construct: purchased DiscoveRx KINOMEscan

TSSK1B = molecular target: T26, TSSK1B (Homo sapiens, UniProt Q9BXA7)
T26 construct: purchased DiscoveRx KINOMEscan

FLT3(K663Q) = molecular target: T27, FLT3(K663Q) (Homo sapiens, UniProt P36888, K663Q)
T27 construct: purchased DiscoveRx KINOMEscan

CSNK1G2 = molecular target: T28, CSNK1G2 (Homo sapiens, UniProt P78368)
T28 construct: purchased DiscoveRx KINOMEscan

MAPKAPK2 = molecular target: T29, MAPKAPK2 (Homo sapiens, UniProt P49137)
T29 construct: purchased DiscoveRx KINOMEscan

PDGFRA = molecular target: T30, PDGFRA (Homo sapiens, UniProt P16234)
T30 construct: purchased DiscoveRx KINOMEscan

SGK2 = molecular target: T31, SGK2 (Homo sapiens, UniProt Q9HBY8)
T31 construct: purchased DiscoveRx KINOMEscan

MYO3A = molecular target: T32, MYO3A (Homo sapiens, UniProt Q8NEV4)
T32 construct: purchased DiscoveRx KINOMEscan

SG110 = molecular target: T33, SG110 (Homo sapiens, UniProt P0C264)
T33 construct: purchased DiscoveRx KINOMEscan

YANK3 = molecular target: T34, YANK3 (Homo sapiens, UniProt Q86UX6)
T34 construct: purchased DiscoveRx KINOMEscan

TRPM6 = molecular target: T35, TRPM6 (Homo sapiens, UniProt Q9BX84)
T35 construct: purchased DiscoveRx KINOMEscan

KIT(L576P) = molecular target: T36, KIT(L576P) (Homo sapiens, UniProt P10721, L576P)
T36 construct: purchased DiscoveRx KINOMEscan

PAK4 = molecular target: T37, PAK4 (Homo sapiens, UniProt O96013)
T37 construct: purchased DiscoveRx KINOMEscan

p38-alpha = molecular target: T38, p38-alpha (Homo sapiens, UniProt Q16539)
T38 construct: purchased DiscoveRx KINOMEscan

CSNK1A1 = molecular target: T39, CSNK1A1 (Homo sapiens, UniProt P48729)
T39 construct: purchased DiscoveRx KINOMEscan

TNNI3K = molecular target: T40, TNNI3K (Homo sapiens, UniProt Q59H18)
T40 construct: purchased DiscoveRx KINOMEscan

FES = molecular target: T41, FES (Homo sapiens, UniProt P07332)
T41 construct: purchased DiscoveRx KINOMEscan

SGK = molecular target: T42, SGK (Homo sapiens, UniProt O00141)
T42 construct: purchased DiscoveRx KINOMEscan

SIK = molecular target: T43, SIK (Homo sapiens, UniProt P57059)
T43 construct: purchased DiscoveRx KINOMEscan

MINK = molecular target: T44, MINK (Homo sapiens, UniProt Q8N4C8)
T44 construct: purchased DiscoveRx KINOMEscan

T2 sequence (Q8TD19 whole entry): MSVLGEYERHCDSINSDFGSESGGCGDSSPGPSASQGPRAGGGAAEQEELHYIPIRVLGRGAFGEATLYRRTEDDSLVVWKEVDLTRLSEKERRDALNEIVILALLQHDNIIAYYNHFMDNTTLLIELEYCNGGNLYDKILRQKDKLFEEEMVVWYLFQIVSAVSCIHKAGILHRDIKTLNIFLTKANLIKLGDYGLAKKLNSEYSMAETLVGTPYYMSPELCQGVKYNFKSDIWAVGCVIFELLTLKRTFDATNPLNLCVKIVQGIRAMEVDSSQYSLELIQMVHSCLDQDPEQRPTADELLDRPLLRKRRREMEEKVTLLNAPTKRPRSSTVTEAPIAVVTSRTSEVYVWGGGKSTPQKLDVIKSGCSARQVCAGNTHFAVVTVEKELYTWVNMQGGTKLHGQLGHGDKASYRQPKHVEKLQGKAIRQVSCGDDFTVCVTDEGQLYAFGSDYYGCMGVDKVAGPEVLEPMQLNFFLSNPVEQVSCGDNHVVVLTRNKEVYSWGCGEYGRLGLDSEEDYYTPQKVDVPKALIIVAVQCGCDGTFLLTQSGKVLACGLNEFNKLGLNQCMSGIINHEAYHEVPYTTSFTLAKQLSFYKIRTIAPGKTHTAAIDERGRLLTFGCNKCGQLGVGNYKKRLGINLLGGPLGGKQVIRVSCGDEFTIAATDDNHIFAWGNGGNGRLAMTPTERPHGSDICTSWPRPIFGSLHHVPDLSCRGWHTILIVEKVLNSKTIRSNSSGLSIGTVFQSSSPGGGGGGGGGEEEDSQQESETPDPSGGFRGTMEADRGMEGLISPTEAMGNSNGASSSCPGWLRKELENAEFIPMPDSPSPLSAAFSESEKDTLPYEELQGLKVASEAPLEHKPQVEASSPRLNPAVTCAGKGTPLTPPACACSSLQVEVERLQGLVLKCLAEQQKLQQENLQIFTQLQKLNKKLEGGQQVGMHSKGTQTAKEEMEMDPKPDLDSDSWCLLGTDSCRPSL
T41 sequence (P07332 whole entry): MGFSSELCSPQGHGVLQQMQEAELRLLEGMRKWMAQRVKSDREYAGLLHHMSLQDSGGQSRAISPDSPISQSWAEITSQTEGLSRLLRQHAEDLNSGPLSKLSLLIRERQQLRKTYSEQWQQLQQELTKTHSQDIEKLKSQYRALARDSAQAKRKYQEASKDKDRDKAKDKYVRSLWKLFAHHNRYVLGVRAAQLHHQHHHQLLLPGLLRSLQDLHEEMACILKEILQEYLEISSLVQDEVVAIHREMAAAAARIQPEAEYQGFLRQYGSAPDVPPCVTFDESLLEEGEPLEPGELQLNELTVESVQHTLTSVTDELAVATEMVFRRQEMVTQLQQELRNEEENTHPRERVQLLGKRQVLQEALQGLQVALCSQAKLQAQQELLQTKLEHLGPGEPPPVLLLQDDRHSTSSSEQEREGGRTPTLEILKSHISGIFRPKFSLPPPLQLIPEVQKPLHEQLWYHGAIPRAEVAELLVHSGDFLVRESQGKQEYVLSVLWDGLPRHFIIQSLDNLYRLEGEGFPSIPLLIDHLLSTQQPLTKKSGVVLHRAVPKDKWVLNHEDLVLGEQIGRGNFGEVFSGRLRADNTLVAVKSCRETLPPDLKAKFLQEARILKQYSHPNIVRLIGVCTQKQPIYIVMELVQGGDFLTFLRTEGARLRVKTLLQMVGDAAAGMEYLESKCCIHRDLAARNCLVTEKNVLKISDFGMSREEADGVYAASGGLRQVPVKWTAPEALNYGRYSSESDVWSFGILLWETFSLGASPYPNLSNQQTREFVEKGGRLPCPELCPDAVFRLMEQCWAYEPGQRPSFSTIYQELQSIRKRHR
T23 sequence (P08581 25-1390 M1250T): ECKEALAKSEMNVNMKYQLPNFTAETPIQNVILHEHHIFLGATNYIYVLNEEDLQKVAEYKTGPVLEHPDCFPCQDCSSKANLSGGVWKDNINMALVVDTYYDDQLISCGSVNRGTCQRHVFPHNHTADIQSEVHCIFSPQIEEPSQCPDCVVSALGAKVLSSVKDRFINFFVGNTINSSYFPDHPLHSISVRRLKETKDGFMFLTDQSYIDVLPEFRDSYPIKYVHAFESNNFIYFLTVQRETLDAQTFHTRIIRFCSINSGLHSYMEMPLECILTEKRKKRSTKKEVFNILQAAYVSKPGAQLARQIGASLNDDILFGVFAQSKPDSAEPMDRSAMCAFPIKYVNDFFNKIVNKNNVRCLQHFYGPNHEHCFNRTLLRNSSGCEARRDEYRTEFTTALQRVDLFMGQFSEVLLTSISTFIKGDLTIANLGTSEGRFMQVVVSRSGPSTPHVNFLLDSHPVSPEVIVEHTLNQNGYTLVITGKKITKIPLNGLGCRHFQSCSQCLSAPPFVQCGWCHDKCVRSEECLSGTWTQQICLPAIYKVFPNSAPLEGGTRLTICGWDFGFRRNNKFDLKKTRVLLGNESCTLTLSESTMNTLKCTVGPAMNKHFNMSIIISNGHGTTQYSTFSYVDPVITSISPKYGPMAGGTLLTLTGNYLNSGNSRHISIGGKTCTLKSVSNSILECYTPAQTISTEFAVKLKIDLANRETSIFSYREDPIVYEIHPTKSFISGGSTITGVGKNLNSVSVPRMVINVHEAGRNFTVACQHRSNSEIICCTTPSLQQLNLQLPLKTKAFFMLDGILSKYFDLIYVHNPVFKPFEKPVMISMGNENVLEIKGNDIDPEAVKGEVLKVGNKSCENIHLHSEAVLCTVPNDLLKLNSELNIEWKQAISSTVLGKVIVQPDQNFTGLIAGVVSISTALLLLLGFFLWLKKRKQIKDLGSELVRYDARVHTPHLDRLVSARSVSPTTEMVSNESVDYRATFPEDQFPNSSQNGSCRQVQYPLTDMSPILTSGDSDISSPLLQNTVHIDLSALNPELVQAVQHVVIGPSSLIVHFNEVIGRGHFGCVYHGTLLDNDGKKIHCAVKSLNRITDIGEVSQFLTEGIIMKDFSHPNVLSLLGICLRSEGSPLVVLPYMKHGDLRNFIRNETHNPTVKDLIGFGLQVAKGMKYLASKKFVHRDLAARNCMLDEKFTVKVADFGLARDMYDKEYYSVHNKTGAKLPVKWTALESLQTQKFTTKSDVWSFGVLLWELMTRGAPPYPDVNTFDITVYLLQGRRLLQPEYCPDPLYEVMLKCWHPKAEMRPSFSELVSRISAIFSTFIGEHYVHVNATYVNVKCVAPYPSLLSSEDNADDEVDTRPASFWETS
T21 sequence (P10721 26-976 V559D): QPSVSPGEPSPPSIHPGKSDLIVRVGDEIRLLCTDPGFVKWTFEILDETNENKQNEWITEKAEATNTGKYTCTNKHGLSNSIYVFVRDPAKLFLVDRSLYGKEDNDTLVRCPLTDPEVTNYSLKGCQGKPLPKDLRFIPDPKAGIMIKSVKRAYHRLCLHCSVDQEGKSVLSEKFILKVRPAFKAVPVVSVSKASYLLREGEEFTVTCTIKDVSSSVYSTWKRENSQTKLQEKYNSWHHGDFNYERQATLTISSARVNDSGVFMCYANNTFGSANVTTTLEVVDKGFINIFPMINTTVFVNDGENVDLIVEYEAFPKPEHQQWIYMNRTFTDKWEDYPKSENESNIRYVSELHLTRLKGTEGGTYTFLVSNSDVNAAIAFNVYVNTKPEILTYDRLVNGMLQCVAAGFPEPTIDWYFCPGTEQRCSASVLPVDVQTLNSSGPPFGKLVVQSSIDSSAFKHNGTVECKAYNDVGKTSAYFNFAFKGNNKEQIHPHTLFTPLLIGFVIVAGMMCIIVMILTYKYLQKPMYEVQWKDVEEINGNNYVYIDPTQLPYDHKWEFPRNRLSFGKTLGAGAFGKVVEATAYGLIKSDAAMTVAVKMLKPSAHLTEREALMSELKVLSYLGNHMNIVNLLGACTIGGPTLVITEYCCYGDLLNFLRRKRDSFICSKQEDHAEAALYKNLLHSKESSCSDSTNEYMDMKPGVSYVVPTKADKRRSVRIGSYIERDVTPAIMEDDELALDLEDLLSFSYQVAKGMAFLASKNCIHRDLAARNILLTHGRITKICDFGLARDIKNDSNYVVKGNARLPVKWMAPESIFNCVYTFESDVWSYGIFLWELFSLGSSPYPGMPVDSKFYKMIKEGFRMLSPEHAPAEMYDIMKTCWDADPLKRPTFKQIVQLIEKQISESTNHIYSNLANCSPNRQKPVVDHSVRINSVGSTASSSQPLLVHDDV
T11 sequence (Q32MK0 whole entry): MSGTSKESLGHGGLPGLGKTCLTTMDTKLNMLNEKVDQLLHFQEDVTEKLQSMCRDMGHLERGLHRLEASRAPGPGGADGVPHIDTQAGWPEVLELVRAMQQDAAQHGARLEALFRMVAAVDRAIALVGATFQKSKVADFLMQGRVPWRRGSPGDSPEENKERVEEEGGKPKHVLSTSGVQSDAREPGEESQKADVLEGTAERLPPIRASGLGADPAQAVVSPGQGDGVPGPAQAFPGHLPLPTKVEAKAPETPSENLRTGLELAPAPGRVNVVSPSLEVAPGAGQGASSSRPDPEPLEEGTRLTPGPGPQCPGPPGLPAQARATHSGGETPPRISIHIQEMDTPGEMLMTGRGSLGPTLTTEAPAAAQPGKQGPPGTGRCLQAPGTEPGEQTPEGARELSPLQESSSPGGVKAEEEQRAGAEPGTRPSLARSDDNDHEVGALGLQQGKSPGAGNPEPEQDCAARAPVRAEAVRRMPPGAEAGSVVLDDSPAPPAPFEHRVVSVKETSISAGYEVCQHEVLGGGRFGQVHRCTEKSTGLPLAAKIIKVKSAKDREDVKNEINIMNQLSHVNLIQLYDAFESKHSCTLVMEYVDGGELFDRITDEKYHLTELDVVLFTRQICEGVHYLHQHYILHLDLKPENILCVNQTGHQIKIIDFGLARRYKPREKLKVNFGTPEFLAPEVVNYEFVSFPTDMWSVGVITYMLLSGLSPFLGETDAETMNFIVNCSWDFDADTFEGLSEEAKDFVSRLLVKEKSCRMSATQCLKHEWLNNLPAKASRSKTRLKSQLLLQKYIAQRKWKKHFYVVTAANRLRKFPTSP
T1 sequence (P10721 26-976 D816V): as the sequence (P10721 26-976 V559D) above, with D534V, D791V counted along it
T36 sequence (P10721 26-976 L576P): as the sequence (P10721 26-976 V559D) above, with D534V, L551P counted along it

In the case of `CCN(C(=O)CO)[C@H]1CN(/C(=N\C#N)Nc2cccc(OC(F)F)c2)N=C1c1ccc(Cl)c(Cl)c1` [(S)-4], the remaining binding at 1 µM (KIT(D816V)) is reported as 86%, the remaining binding at 1 µM (NEK9) is reported as 100% and the remaining binding at 1 µM (SRMS) is reported as 94%. It also gave a remaining binding at 1 µM (CLK3) of 94%, a remaining binding at 1 µM (PIK3CA(H1047L)) of 92% and a remaining binding at 1 µM (NEK11) of 77%. It also gave a remaining binding at 1 µM (PHKG2) of 99%, a remaining binding at 1 µM (MYLK2) of 100% and a remaining binding at 1 µM (CAMK2B) of 100%. For the same molecule, the remaining binding at 1 µM (MAP4K3) was 90%, the remaining binding at 1 µM (MLCK) was 100% and the remaining binding at 1 µM (PKMYT1) was 100%. For the same molecule, the remaining binding at 1 µM (YANK1) was 77%, the remaining binding at 1 µM (TTK) was 82% and the remaining binding at 1 µM (EGFR(G719S)) was 78%. The remaining binding at 1 µM (NIM1) was 100%, the remaining binding at 1 µM (PIP5K2B) was 100% and the remaining binding at 1 µM (AKT2) was 100%. For the same molecule, the remaining binding at 1 µM (CAMK1) was 85%, the remaining binding at 1 µM (IRAK4) was 100% and the remaining binding at 1 µM (KIT(V559D)) was 99%. For the same molecule, the remaining binding at 1 µM (BIKE) was 80%, the remaining binding at 1 µM (MET(M1250T)) was 86% and the remaining binding at 1 µM (DYRK1A) was 100%. For the same molecule, the remaining binding at 1 µM (TRKA) was 93%, the remaining binding at 1 µM (TSSK1B) was 79% and the remaining binding at 1 µM (FLT3(K663Q)) was 100%. The remaining binding at 1 µM (CSNK1G2) was 94%, the remaining binding at 1 µM (MAPKAPK2) was 91% and the remaining binding at 1 µM (PDGFRA) was 100%. The remaining binding at 1 µM (SGK2) was 100%, the remaining binding at 1 µM (MYO3A) was 100% and the remaining binding at 1 µM (SG110) was 92%. For the same molecule, the remaining binding at 1 µM (YANK3) was 100%, the remaining binding at 1 µM (TRPM6) was 80% and the remaining binding at 1 µM (KIT(L576P)) was 85%. The remaining binding at 1 µM (PAK4) was 91%, the remaining binding at 1 µM (p38-alpha) was 86% and the remaining binding at 1 µM (CSNK1A1) was 63%. The remaining binding at 1 µM (TNNI3K) was 73%, the remaining binding at 1 µM (FES) was 92% and the remaining binding at 1 µM (SGK) was 100%. It also gave a remaining binding at 1 µM (SIK) of 98% and a remaining binding at 1 µM (MINK) of 100%.
